Laboratory results from patent US5624894A, “Brain-enhanced delivery of neuroactive peptides by sequential metabolism” (University of Florida, priority 1995, dated 1997).
Square brackets hold non-standard residues; d marks the D form. Peptide text beside a SMILES is read from it. * marks the point of attachment. O(cholesteryl) = CC(C)CCC[C@@H](C)[C@H]1CC[C@H]2[C@@H]3CC=C4C[C@@H](O*)CC[C@]4(C)[C@H]3CC[C@]12C; Nicotinoyl(1-Me-1,4-dihydro) = CN1C=CCC(C(=O)*)=C1

Tested on: Sprague-Dawley rats
Assay: Rat tail flick test (analgesia) after i.v. administration
Format: in vivo
Design: Area under the latency change vs. time curve, AUC0-240 min: unit not given here
Settings: for Tail flick latency period / Maximum tail flick latency: cutoff 60 s; for Tail flick latency period / Maximum tail flick latency / Area under the latency change vs. time curve, AUC0-240 min: mean ± S.E.; for Number of Animals with maximum tail flick latency >60 seconds: cutoff latency 60 seconds
Description: Sprague-Dawley rats weighing 200-250 g were used. Drugs were dissolved in the vehicle consisting of DMSO, ethanol and 50% (w/w) 2-hydroxypropyl-β-cyclodextrin at a ratio of 1:2:1. A-CDS at a dose of 5 or 10 mg/2 ml/kg was injected in the animals through the tail vein. Vehicle only, or an equimolar dose (5 mg/kg) of DADLE (equimolar to 10 mg/kg of A-CDS) was also administered to compare the pharmacological activities. Tail flick latency, an index of spinal cord mediated analgesia, was measured before (control) and at 5 minutes, 15 minutes, 30 minutes, 1 hour, 2 hours, 3 hours, 4 hours, 5 hours and 6 hours after drug administration. The instrument used was a model 33 tail flick analgesia meter (lite, Inc., Landing, N.J.) set with the beam dial at 90 and the sensitivity at 8. Time between presentation of a focused beam of light and the reflexive removal of the tail from the stimulus was defined as the tail flick latency period, and the tail flick latency difference between each time point and control was defined as the change in tail flick latency. In the absence of response, a cut-off period of 1 minute was used. Each drug at each dose was tested in ten animals. Results are presented in Tables 5-8 below and in FIGS. 3-5.
Another representative chemical delivery system (AA-CDS) of the invention for the enkephalin analog DADLE, namely compound (69) of EXAMPLE 69, which has an alanine-alanine spacer, was studied in the same rat tail flick test procedure described above to determine its analgesic effects compared to DADLE itself. AA-CDS was tested at a dose of 10 mg/2 ml/kg, which is equimolar to 5 mg/kg of DADLE, and compared with vehicle and 5mg/kg of DADLE exactly as described above. Each dose was tested in ten animals.

CC(C)C[C@@H](NC(=O)[C@H](Cc1ccccc1)NC(=O)CNC(=O)[C@@H](C)NC(=O)[C@@H](N)Cc1ccc(O)cc1)C(=O)O [DADLE, H-Tyr-D-Ala-Gly-Phe-D-Leu-OH, reference compound]
Number of Animals with maximum tail flick latency 20-40 seconds (5 mg/kg i.v.): 3
Number of Animals with maximum tail flick latency 40-60 seconds (5 mg/kg i.v.): 0
Number of Animals with maximum tail flick latency <20 seconds (5 mg/kg i.v.): 7
Tail flick latency period (5 mg/kg i.v., 0 min (prior to drug administration)): 7.97 ± 0.60 s
Tail flick latency period (5 mg/kg i.v., 5 min): 12.15 ± 1.53 s
Tail flick latency period (5 mg/kg i.v., 15 min): 12.67 ± 1.18 s
Tail flick latency period (5 mg/kg i.v., 30 min): 12.66 ± 1.70 s
Tail flick latency period (5 mg/kg i.v., 60 min): 15.75 ± 3.03 s
Tail flick latency period (5 mg/kg i.v., 120 min): 10.11 ± 1.29 s
Tail flick latency period (5 mg/kg i.v., 180 min): 10.94 ± 1.65 s
Tail flick latency period (5 mg/kg i.v., 240 min): 10.64 ± 1.68 s
Tail flick latency period (5 mg/kg i.v., 300 min): 10.02 ± 1.08 s
Maximum tail flick latency (5 mg/kg i.v.): 19.68 ± 2.42 s
Number of Animals with maximum tail flick latency >60 seconds (5 mg/kg i.v.): 0
Area under the latency change vs. time curve, AUC0-240 min (5 mg/kg i.v.): 775.58 ± 273.20

CC(C)CCC[C@@H](C)[C@H]1CC[C@H]2[C@@H]3CC=C4C[C@@H](OC(=O)[C@@H](CC(C)C)NC(=O)[C@H](Cc5ccccc5)NC(=O)CNC(=O)[C@@H](C)NC(=O)[C@H](Cc5ccc(O)cc5)NC(=O)[C@H](C)NC(=O)[C@H](C)NC(=O)C5=CN(C)C=CC5)CC[C@]4(C)[C@H]3CC[C@]12C [Compound (69), 1,4Dihydrotrigonellyl-Ala-Ala-Tyr-D-Ala-Gly-Phe-D-Leu-Cholesteryl Ester] ({Nicotinoyl(1-Me-1,4-dihydro)}-AAY[dA]GF[dL]-{O(cholesteryl)})
Number of Animals with maximum tail flick latency 20-40 seconds (10 mg/kg i.v.): 2
Number of Animals with maximum tail flick latency 40-60 seconds (10 mg/kg i.v.): 2
Number of Animals with maximum tail flick latency <20 seconds (10 mg/kg i.v.): 3
Tail flick latency period (10 mg/kg i.v., 0 min (prior to drug administration)): 8.47 ± 0.76 s
Tail flick latency period (10 mg/kg i.v., 5 min): 29.78 ± 5.99 s
Tail flick latency period (10 mg/kg i.v., 15 min): 20.24 ± 5.07 s
Tail flick latency period (10 mg/kg i.v., 30 min): 20.41 ± 5.42 s
Tail flick latency period (10 mg/kg i.v., 60 min): 13.77 ± 2.01 s
Tail flick latency period (10 mg/kg i.v., 120 min): 11.81 ± 0.99 s
Tail flick latency period (10 mg/kg i.v., 180 min): 15.94 ± 1.89 s
Tail flick latency period (10 mg/kg i.v., 240 min): 13.99 ± 0.95 s
Tail flick latency period (10 mg/kg i.v., 300 min): 18.43 ± 4.52 s
Maximum tail flick latency (10 mg/kg i.v.): 34.27 ± 6.20 s
Number of Animals with maximum tail flick latency >60 seconds (10 mg/kg i.v.): 2
Area under the latency change vs. time curve, AUC0-240 min (10 mg/kg i.v.): 1639.67 ± 266.61
analgesic effect in tail flick test (in words) (i.v., compared to control): produced a significant analgesic effect
